Here are results for 15 compounds from BindingDB's records for doi:10.1016/s0960-894x(01)00573-x (Pfizer, 2001).

pKi: −log10 of the molar value.

The target of this assay is T1, Caspase-1 (Homo sapiens, UniProt P29466).
T1 sequence (P29466 whole entry): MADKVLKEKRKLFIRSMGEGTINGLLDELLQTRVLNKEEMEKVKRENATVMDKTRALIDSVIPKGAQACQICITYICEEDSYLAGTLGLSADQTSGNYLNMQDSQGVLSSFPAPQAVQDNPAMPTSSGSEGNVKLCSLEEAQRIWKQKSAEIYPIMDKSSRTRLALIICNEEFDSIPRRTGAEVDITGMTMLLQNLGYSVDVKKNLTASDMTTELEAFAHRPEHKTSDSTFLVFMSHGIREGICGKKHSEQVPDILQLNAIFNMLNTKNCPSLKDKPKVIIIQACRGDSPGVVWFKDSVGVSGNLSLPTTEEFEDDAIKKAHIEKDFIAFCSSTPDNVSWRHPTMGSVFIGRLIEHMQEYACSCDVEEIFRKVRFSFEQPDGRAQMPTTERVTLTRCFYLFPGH
In words: Caspase Inhibition Assay. As to conditions: pH 7; 37 °C. The method, then: The substrate peptides terminating in AMC are processed by caspases with or without inhibitors, and the accumulation of AMC was assessed with a Cytofluor fluorescent plate reader at excitation and emission wavelengths of 380 and 460 nm. Compounds were tested, and full IC50 curves were run for all compounds expressing measurable inhibitory activity.
What is called pKi is −log10 of the Ki, conventionally taken in molar units. Low values mean a high Ki, high ones a low Ki. Turning to `O=C[C@H](CC(=O)O)NS(=O)(=O)c1ccccc1Oc1ccc(-c2ccc(C(=O)O)cc2)cc1` [4-[4-(2-{[(2S)-1-carboxy-3-oxopropan-2-yl]sulfamoyl}phenoxy)phenyl]benzoic acid], the pKi was 5.38.
The figure for `Cc1cc(Oc2ccccc2S(=O)(=O)N[C@H](C=O)CC(=O)O)ccc1C(C)C` [(3S)-3-({2-[3-methyl-4-(propan-2-yl)phenoxy]benzene}sulfonamido)-4-oxobutanoic acid] is 6.96; for `CCC(C)c1ccc(Oc2ccccc2S(=O)(=O)N[C@H](C=O)CC(=O)O)cc1C` (stereo partly drawn) [(3S)-3-({2-[4-(butan-2-yl)-3-methylphenoxy]benzene}sulfonamido)-4-oxobutanoic acid] it is 7.00; for `CCC(C)c1ccc(Oc2ccccc2S(=O)(=O)N[C@H](C=O)CC(=O)O)cc1` (stereo partly drawn) [(3S)-3-({2-[4-(butan-2-yl)phenoxy]benzene}sulfonamido)-4-oxobutanoic acid] it is 6.31.
With `Cc1cccc(Oc2ccccc2S(=O)(=O)N[C@H](C=O)CC(=O)O)c1C` [(3S)-3-{[2-(2,3-dimethylphenoxy)benzene]sulfonamido}-4-oxobutanoic acid], the negative-log Ki (pKi) is 6.00.
Compound `Cc1ccccc1Oc1ccccc1S(=O)(=O)N[C@H](C=O)CC(=O)O` [(3S)-3-{[2-(2-methylphenoxy)benzene]sulfonamido}-4-oxobutanoic acid] had a pKi of 5.52.
Under `Cc1cccc(Oc2ccccc2S(=O)(=O)N[C@H](C=O)CC(=O)O)c1` [(3S)-3-{[2-(3-methylphenoxy)benzene]sulfonamido}-4-oxobutanoic acid] stands 6.37; under `O=C[C@H](CC(=O)O)NS(=O)(=O)c1ccccc1Oc1ccc(C2CCCCC2)cc1` [(3S)-3-{[2-(4-cyclohexylphenoxy)benzene]sulfonamido}-4-oxobutanoic acid], 6.05.
`O=C[C@H](CC(=O)O)NS(=O)(=O)c1ccccc1Oc1ccc(C2CCCC2)cc1` [(3S)-3-{[2-(4-cyclopentylphenoxy)benzene]sulfonamido}-4-oxobutanoic acid]: the negative-log Ki (pKi) is 6.06.
The figure for `Cc1ccc(Oc2ccccc2S(=O)(=O)N[C@H](C=O)CC(=O)O)cc1` [(3S)-3-{[2-(4-methylphenoxy)benzene]sulfonamido}-4-oxobutanoic acid] is 5.96; for `CCC(CC)c1ccc(Oc2ccccc2S(=O)(=O)N[C@H](C=O)CC(=O)O)cc1` [(3S)-4-oxo-3-({2-[4-(pentan-3-yl)phenoxy]benzene}sulfonamido)butanoic acid] it is 6.36.
Under `CC(C)c1ccc(Oc2ccccc2S(=O)(=O)N[C@H](C=O)CC(=O)O)cc1` [(3S)-4-oxo-3-({2-[4-(propan-2-yl)phenoxy]benzene}sulfonamido)butanoic acid] stands 6.21; under `O=C[C@H](CC(=O)O)NS(=O)(=O)c1ccccc1Oc1ccccc1` [(3S)-4-oxo-3-[(2-phenoxybenzene)sulfonamido]butanoic acid], 5.62.
The figure for `Cc1cc(Oc2ccccc2S(=O)(=O)N[C@H](C=O)CC(=O)O)cc(C)c1C` [(3S)-4-oxo-3-{[2-(3,4,5-trimethylphenoxy)benzene]sulfonamido}butanoic acid] is 6.35.
Compound `O=C[C@H](CC(=O)O)NS(=O)(=O)c1ccccc1Oc1ccc(-c2ccccc2)cc1` [(3S)-4-oxo-3-{[2-(4-phenylphenoxy)benzene]sulfonamido}butanoic acid] showed a pKi of 6.54.
